Source: ChEMBL document CHEMBL5291721, “A preclinical secondary pharmacology resource illuminates target-adverse drug reaction associations of marketed drugs” (Nat Commun, 2023)

How the values were obtained:
[1] = molecular target: Voltage-dependent N-type calcium channel subunit alpha-1B (Rattus norvegicus, UniProt Q02294); type: functional
[2] = molecular target: Cannabinoid receptor 1 (Homo sapiens, UniProt P21554); type: functional
[3] = molecular target: Gamma-aminobutyric acid type B receptor subunit 1 (Homo sapiens, UniProt Q9UBS5)
[4] = molecular target: 5-hydroxytryptamine receptor 2B (Homo sapiens, UniProt P41595)
[5] = molecular target: Substance-P receptor (Homo sapiens, UniProt P25103)
[6] = molecular target: T1, Thromboxane A2 receptor (Homo sapiens, UniProt P21731); type: functional
T1 sequence (P21731 whole entry): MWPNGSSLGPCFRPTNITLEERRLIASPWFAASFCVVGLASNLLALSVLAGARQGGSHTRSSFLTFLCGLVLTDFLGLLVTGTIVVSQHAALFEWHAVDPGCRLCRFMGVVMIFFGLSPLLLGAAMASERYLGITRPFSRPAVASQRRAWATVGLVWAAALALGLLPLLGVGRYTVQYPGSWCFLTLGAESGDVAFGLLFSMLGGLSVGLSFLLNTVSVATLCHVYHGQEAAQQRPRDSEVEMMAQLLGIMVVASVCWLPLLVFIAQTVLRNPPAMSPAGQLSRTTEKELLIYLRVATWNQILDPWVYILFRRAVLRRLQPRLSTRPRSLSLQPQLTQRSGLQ

[7] = molecular target: Vascular endothelial growth factor receptor 2 (Homo sapiens, UniProt P35968); type: functional
[8] = molecular target: T1, Thromboxane A2 receptor; type: functional, cell-based
[9] = molecular target: T2, Estrogen receptor (Homo sapiens, UniProt P03372); type: functional
T2 sequence (P03372 whole entry): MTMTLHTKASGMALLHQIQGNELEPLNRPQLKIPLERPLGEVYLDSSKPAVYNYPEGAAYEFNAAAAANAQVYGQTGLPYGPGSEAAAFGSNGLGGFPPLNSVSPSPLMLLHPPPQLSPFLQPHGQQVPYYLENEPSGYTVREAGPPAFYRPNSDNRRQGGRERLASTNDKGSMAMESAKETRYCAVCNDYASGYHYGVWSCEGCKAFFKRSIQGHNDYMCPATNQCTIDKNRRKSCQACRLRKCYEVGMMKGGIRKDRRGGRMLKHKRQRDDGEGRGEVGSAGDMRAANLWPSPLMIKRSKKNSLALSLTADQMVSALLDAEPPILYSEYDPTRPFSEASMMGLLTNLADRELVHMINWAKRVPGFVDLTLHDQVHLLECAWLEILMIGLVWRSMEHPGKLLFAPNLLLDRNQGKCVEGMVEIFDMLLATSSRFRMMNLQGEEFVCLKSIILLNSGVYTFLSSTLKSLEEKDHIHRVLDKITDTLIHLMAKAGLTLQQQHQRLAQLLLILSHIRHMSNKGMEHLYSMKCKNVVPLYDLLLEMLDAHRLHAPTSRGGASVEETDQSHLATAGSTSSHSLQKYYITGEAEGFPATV

[10] = molecular target: Gamma-aminobutyric acid receptor subunit alpha-1/alpha-2/beta-2/gamma-2 (Homo sapiens, UniProt P14867+P18507+P47869+P47870); type: functional, cell-based
[11] = molecular target: 5-hydroxytryptamine receptor 2A (Homo sapiens, UniProt P28223)
[12] = molecular target: T3, Glucocorticoid receptor (Homo sapiens, UniProt P04150); type: functional
T3 sequence (P04150 whole entry): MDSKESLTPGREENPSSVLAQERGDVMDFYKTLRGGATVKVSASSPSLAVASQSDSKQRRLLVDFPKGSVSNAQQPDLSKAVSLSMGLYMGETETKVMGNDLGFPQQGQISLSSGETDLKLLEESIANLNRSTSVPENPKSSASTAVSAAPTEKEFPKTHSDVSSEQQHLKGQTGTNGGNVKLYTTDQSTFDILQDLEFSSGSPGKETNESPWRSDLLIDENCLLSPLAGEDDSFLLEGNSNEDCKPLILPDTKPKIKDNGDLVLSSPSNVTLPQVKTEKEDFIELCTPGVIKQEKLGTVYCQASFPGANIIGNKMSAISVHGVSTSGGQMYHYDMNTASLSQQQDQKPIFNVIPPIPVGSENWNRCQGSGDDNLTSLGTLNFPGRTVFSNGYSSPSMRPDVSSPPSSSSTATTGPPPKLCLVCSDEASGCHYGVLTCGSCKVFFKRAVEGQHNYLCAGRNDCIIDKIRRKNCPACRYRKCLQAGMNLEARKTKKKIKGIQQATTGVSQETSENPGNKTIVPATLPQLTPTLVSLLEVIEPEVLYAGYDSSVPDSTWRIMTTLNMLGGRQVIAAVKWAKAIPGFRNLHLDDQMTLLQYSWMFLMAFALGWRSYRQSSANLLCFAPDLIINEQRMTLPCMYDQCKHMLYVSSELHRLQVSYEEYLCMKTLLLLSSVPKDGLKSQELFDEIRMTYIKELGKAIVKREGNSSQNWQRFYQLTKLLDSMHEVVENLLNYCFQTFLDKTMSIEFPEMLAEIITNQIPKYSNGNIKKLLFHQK

[13] = molecular target: Hydroxycarboxylic acid receptor 2 (Homo sapiens, UniProt Q8TDS4)
Note: assay procedure not described here.

Vascular endothelial growth factor receptor 2, sequence (P35968 whole entry): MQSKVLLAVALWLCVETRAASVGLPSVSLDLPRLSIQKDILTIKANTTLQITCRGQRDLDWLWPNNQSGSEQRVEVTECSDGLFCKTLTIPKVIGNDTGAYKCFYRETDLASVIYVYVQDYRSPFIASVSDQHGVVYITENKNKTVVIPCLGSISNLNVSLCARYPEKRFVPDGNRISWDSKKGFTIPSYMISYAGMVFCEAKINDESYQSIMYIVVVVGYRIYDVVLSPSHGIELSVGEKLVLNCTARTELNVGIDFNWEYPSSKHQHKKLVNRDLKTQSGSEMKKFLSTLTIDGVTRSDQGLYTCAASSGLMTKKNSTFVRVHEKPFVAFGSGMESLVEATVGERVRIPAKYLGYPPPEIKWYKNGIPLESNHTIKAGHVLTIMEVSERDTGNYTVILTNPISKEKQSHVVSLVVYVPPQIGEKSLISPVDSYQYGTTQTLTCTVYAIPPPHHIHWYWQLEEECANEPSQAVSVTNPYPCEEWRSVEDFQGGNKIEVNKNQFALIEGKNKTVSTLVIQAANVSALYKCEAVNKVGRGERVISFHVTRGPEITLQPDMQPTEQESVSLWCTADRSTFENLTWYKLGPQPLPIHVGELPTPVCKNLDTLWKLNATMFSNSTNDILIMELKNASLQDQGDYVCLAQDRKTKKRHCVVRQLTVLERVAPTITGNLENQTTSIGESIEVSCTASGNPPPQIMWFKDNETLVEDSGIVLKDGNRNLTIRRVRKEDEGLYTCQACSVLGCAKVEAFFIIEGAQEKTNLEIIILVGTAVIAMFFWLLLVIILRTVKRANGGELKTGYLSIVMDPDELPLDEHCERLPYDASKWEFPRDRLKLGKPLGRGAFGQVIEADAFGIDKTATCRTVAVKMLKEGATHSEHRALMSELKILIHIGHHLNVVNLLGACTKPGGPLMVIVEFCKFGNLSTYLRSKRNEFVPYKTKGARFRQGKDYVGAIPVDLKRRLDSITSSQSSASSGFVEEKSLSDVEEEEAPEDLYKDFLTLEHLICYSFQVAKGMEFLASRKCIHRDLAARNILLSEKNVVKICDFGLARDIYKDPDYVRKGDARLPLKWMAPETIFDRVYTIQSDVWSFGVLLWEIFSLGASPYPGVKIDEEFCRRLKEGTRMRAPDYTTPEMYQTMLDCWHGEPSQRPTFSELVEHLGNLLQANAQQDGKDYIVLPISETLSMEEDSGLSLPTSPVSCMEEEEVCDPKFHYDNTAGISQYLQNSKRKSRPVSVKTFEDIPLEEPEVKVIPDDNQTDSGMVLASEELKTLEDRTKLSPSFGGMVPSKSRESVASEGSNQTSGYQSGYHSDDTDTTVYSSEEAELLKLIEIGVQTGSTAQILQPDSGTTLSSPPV
5-hydroxytryptamine receptor 2B, sequence (P41595 whole entry): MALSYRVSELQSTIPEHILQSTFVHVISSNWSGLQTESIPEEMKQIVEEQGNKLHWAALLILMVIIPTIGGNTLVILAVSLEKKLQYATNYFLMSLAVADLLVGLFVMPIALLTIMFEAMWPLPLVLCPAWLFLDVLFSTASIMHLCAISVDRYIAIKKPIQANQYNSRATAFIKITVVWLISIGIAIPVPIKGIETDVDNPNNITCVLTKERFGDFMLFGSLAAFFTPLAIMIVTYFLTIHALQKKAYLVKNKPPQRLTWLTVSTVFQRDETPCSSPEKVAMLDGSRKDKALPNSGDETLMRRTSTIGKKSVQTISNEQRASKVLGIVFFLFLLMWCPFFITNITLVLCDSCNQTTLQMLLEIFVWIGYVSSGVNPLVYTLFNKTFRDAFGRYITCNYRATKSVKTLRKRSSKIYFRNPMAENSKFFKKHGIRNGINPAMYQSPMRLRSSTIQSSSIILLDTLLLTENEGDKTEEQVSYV
Voltage-dependent N-type calcium channel subunit alpha-1B, sequence (Q02294 whole entry): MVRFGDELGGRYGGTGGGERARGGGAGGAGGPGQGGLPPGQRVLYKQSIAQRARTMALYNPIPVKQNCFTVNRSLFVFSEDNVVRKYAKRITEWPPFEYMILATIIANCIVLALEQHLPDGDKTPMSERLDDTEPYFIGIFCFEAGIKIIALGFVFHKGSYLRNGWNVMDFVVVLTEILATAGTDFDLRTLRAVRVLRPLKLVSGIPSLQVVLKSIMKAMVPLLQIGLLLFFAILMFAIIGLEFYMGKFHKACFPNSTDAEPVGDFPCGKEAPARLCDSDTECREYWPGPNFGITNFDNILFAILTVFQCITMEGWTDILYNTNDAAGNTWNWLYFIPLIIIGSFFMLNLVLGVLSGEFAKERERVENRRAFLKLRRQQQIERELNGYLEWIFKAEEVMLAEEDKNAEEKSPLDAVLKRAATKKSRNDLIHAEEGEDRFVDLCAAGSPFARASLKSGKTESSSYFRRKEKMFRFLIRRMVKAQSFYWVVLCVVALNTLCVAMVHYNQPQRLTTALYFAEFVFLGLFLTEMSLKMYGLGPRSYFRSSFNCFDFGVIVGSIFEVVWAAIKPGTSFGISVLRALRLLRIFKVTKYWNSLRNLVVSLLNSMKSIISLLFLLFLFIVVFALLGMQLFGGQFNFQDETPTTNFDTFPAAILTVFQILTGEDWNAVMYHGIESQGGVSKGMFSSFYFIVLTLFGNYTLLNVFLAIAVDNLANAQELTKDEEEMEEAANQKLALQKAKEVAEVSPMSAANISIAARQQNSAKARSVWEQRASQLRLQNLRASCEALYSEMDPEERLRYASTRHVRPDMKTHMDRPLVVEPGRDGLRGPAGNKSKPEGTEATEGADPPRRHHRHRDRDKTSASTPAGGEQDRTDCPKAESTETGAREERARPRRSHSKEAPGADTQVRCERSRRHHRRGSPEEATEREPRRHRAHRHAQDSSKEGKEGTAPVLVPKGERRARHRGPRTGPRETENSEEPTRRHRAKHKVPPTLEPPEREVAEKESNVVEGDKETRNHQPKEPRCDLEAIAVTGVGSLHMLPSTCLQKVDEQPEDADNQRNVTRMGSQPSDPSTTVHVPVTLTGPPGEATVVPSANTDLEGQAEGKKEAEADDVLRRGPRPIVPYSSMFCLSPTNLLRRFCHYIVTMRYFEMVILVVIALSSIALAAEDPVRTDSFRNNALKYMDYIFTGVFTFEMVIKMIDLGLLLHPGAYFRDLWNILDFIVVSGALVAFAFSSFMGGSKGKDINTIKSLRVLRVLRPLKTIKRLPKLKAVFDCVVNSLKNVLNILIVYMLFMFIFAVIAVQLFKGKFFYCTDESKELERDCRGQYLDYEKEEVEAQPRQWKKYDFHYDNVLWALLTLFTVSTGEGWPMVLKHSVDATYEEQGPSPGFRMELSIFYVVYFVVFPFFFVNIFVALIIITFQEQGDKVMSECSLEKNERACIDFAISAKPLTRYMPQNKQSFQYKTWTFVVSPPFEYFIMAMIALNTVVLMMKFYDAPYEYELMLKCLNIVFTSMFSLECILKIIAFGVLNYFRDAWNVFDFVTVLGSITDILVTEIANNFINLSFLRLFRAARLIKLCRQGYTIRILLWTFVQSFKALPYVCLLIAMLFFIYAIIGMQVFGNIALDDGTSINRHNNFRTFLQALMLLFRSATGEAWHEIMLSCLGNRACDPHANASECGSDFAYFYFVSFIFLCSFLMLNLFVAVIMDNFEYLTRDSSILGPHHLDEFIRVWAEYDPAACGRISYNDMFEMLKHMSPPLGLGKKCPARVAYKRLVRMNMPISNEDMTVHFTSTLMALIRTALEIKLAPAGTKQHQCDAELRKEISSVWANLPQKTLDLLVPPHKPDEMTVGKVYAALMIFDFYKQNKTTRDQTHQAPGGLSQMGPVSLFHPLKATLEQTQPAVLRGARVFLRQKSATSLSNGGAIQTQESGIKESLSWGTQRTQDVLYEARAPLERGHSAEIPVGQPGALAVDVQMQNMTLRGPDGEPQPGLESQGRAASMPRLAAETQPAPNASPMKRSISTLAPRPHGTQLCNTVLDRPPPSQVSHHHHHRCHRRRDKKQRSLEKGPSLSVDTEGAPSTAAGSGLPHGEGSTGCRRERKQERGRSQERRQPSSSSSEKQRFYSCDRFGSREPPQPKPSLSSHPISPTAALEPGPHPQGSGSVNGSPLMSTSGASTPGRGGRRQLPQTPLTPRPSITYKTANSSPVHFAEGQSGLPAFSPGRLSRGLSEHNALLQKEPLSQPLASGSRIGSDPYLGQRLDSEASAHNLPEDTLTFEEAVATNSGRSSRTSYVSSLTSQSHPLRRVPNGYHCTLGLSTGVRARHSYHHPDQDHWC
5-hydroxytryptamine receptor 2A, sequence (P28223 whole entry): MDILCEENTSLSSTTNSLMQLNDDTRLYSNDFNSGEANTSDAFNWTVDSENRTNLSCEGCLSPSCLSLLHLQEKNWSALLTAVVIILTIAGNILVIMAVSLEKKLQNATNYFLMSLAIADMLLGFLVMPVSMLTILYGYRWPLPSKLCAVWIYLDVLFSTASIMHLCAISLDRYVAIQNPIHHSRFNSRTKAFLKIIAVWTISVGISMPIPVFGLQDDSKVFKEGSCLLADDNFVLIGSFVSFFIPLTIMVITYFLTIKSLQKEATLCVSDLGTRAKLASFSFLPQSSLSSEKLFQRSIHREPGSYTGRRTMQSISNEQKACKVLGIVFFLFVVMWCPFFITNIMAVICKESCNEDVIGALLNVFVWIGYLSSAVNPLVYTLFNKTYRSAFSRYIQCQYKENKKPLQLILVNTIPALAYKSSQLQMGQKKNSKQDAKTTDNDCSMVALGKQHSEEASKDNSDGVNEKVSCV
Cannabinoid receptor 1, sequence (P21554 whole entry): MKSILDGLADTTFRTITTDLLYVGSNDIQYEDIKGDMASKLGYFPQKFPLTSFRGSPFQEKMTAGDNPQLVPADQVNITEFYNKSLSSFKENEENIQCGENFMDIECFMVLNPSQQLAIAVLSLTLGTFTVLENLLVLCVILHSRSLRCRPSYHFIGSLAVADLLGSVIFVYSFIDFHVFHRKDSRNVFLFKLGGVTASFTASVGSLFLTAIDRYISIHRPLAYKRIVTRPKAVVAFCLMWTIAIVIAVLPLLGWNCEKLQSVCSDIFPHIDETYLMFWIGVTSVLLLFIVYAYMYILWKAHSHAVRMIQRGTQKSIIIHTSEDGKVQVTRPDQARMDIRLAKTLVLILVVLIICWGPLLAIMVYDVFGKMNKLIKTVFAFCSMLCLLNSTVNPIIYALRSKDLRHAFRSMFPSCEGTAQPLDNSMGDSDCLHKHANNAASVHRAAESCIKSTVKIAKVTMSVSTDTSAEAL

SMILES | AC50 [1] [µM] | AC50 [2] [µM] | AC50 [3] [µM] | AC50 [4] [µM] | AC50 [5] [µM] | AC50 [6] [µM] | AC50 [7] [µM] | AC50 [8] [µM] | AC50 [9] [µM] | AC50 [10] [µM] | AC50 [11] [µM] | AC50 [12] [µM] | AC50 [13] [µM]
Nc1nc(N)c2nc(-c3ccccc3)c(N)nc2n1 | > 10 | > 10 | > 10 | > 10 | > 10 | > 30 | > 30 | > 30 |  |  |  |  | 
COC(=O)[C@@H]1CC2=CC(=O)CC[C@]2(C)[C@@]23O[C@@H]2C[C@@]2(C)[C@@H](CC[C@@]24CCC(=O)O4)[C@H]13 [EPLERENONE] | > 10 |  |  | > 10 |  |  | > 30 |  | > 30 | > 30 | > 10 |  | 
CC(C)C(=O)Nc1ccc([N+](=O)[O-])c(C(F)(F)F)c1 [FLUTAMIDE] |  |  |  |  |  | > 10 | > 30 | 6 |  |  |  |  | 
CC(N)Cc1ccccc1 (configuration not stated) [AMPHETAMINE] | > 10 |  |  |  |  |  |  |  | > 30 | > 30 | > 10 | > 30 | 
CC(C)NNC(=O)c1ccncc1 [IPRONIAZID] |  |  |  |  |  | > 30 | > 30 | > 30 | > 30 |  |  | > 30 | 
CO/N=C(\C(=O)N[C@@H]1C(=O)N2C(C(=O)[O-])=C(C[N+]3(C)CCCC3)CS[C@H]12)c1csc(N)n1 |  |  |  |  |  | > 300 | > 300 | > 300 | > 300 | > 2400 |  | > 300 | 
CN1CCCC(n2nc(Cc3ccc(Cl)cc3)c3ccccc3c2=O)CC1 (configuration not stated) [AZELASTINE] |  |  |  |  |  |  |  |  | > 30 | 19 |  | > 30 | 
CC(C)Cc1ccc(CC(=O)O)cc1 [IBUFENAC] |  |  |  |  |  | > 30 | > 30 | > 30 |  | > 30 |  | > 30 | 
Oc1ncnc2[nH]ncc12 [ALLOPURINOL] | > 10 |  |  | > 10 | > 10 | > 30 | > 30 | > 30 |  |  |  |  | > 10
NC(=O)c1cnccn1 [PYRAZINAMIDE] | > 10 | > 10 |  | > 10 |  | > 30 | > 30 | > 30 |  |  |  |  | 
CC(=O)c1ccc2c(c1)N(CCCN1CCN(CCO)CC1)c1ccccc1S2 [ACETOPHENAZINE] |  |  |  |  |  |  |  |  | 13 | > 30 |  | > 30 | 
